Experimental data: DBAASP
Values after ≈ are worked out from the molar mass of the structure shown.

Key:
Assay in all cases: ≥ marks a high value that may be exact or a test limit, other limits are often not marked, values filed in µg/mL are converted to µM
[1] = system: Escherichia coli NCTC 10418
Escherichia coli BL21 = system: Escherichia coli BL21
[2] = system: Pseudomonas aeruginosa PAO1
[3] = system: Streptococcus pyogenes M1T1 5448
Staphylococcus aureus = system: Staphylococcus aureus
Bacillus subtilis = system: Bacillus subtilis
[4] = system: Staphylococcus epidermidis
[5] = system: Staphylococcus epidermidis ATCC 12228
Escherichia coli = system: Escherichia coli
Klebsiella pneumoniae = system: Klebsiella pneumoniae
[6] = system: Staphylococcus aureus ATCC 6538
Shigella dysenteriae = system: Shigella dysenteriae
Pseudomonas aeruginosa = system: Pseudomonas aeruginosa
[7] = system: Escherichia coli DH5alpha
[8] = system: Micrococcus luteus ATCC 4698
Proteus mirabilis = system: Proteus mirabilis
Salmonella typhimurium = system: Salmonella typhimurium
Micrococcus luteus = system: Micrococcus luteus
Escherichia coli MG1655 = system: Escherichia coli MG1655
[9] = system: Escherichia coli ATCC 25726
[10] = system: Staphylococcus aureus ATCC 25923
[11] = system: Batrachochytrium dendrobatidis JEL-197

Compound: CC[C@H](C)[C@H](NC(=O)[C@H](CC(N)=O)NC(=O)[C@@H](NC(=O)[C@H](C)N)C(C)C)C(=O)N1CCC[C@H]1C(=O)N[C@@H](Cc1ccccc1)C(=O)N[C@@H](CCCCN)C(=O)N[C@H](C(=O)N[C@@H](Cc1cnc[nH]1)C(=O)N[C@@H](CC(C)C)C(=O)N[C@@H](CCCN=C(N)N)C(=O)N[C@H]1CSSC[C@@H](C(=O)O)NC(=O)[C@H](Cc2ccccc2)NC(=O)[C@H](C)NC(=O)[C@H](C)NC(=O)[C@H](CCCCN)NC1=O)C(C)C [AVNIPFKVHLRCKAAFC]
- MIC [1]: 20 µM (≈ 38.3 µg/mL)

Compound: CC[C@H](C)[C@H](NC(=O)[C@H](Cc1ccccc1)NC(=O)[C@H](C)NC(=O)[C@H](CCCCN)NC(=O)[C@H](CCCCN)NC(=O)CNC(=O)[C@H](CCCN=C(N)N)NC(=O)[C@H](CCCCN)NC(=O)[C@H](CCCN=C(N)N)NC(=O)[C@H](CC(C)C)NC(=O)[C@H](CCC(=O)O)NC(=O)[C@H](CCC(=O)O)NC(=O)[C@H](CCCCN)NC(=O)[C@H](CC(C)C)NC(=O)[C@H](Cc1ccc(O)cc1)NC(=O)[C@H](CC(C)C)NC(=O)[C@@H](NC(=O)[C@H](CC(C)C)NC(=O)[C@H](C)NC(=O)[C@H](CCC(N)=O)NC(=O)[C@H](CCCN=C(N)N)NC(=O)CNC(=O)[C@H](C)N)[C@@H](C)O)C(=O)N[C@@H](Cc1c[nH]c2ccccc12)C(=O)N[C@@H](Cc1c[nH]c2ccccc12)C(=O)O [AGRQALTLYLKEELRKRGKKAFIWW]
- MIC (Escherichia coli BL21): 16 µM (≈ 49 µg/mL)
- MIC [2]: > 128 µM
- MIC [3]: 4 µM (≈ 12.3 µg/mL)

Compound: CC(C)C[C@H](NC(=O)[C@@H](NC(=O)[C@H](CCCCN)NC(=O)[C@H](CO)NC(=O)[C@H](C)NC(=O)[C@@H](NC(=O)[C@H](CCCCN)NC(=O)[C@H](Cc1ccccc1)NC(=O)[C@H](CC(C)C)NC(=O)[C@H](C)NC(=O)CNC(=O)[C@H](CC(C)C)NC(=O)[C@@H](N)Cc1ccccc1)C(C)C)C(C)C)C(=O)O [FLGALFKVASKVL]
- MIC (Staphylococcus aureus): 2.23 µM (≈ 3.1 µg/mL)
- MIC (Bacillus subtilis): 8.98 µM (≈ 12.5 µg/mL)
- MIC [4]: 2.23 µM (≈ 3.1 µg/mL)
- MIC [5]: 180 µM (≈ 250 µg/mL)
- MIC (Escherichia coli): 18 µM (≈ 25 µg/mL)
- MIC (Klebsiella pneumoniae): 18 µM (≈ 25 µg/mL)
- MIC [6]: 71.8 µM (≈ 100 µg/mL)
- MIC (Shigella dysenteriae): 18 µM (≈ 25 µg/mL)
- MIC (Pseudomonas aeruginosa): 71.8 µM (≈ 100 µg/mL)
- MIC [7]: ≥ 194 µM
- MIC [8]: ≥ 35.9 µM
- MIC (Proteus mirabilis): ≥ 144 µM
- MIC (Salmonella typhimurium): ≥ 71.8 µM
- MIC (Micrococcus luteus): 4.52 µM (≈ 6.3 µg/mL)

Compound: CC[C@H](C)[C@H](NC(=O)[C@H](CCCCN)NC(=O)CNC(=O)[C@H](Cc1ccccc1)NC(=O)[C@H](CCCCN)NC(=O)[C@H](CCCN=C(N)N)NC(=O)[C@H](CC(C)C)NC(=O)[C@H](Cc1ccc(O)cc1)NC(=O)[C@H](CCC(=O)O)NC(=O)[C@H](CC(C)C)NC(=O)[C@H](CC(C)C)NC(=O)[C@H](CCC(=O)O)NC(=O)[C@H](CCCCN)NC(=O)[C@@H](NC(=O)[C@H](CC(C)C)NC(=O)[C@H](CCCN=C(N)N)NC(=O)[C@H](CC(N)=O)NC(=O)[C@H](C)NC(=O)[C@H](CCCCN)NC(=O)[C@H](C)N)[C@@H](C)O)C(=O)N[C@@H](C)C(=O)N[C@@H](CCCN=C(N)N)C(=O)N[C@@H](CCCCN)C(=O)N[C@@H](C)C(=O)N[C@@H](Cc1c[nH]c2ccccc12)C(=O)O [AKANRLTKELLEYLRKFGKIARKAW]
- MIC (Escherichia coli BL21): 2 µM (≈ 6.01 µg/mL)
- MIC [2]: 16 µM (≈ 48.1 µg/mL)
- MIC [3]: 4 µM (≈ 12 µg/mL)

Compound: CC[C@H](C)[C@H](NC(=O)[C@H](Cc1ccc(O)cc1)NC(=O)[C@H](CCCCN)NC(=O)[C@H](CCCCN)NC(=O)[C@H](CC(C)C)NC(=O)[C@H](CCC(=O)O)NC(=O)[C@H](CCCCN)NC(=O)[C@H](Cc1c[nH]c2ccccc12)NC(=O)[C@@H](NC(=O)[C@H](CCCN=C(N)N)NC(=O)[C@H](CCC(=O)O)NC(=O)[C@H](CO)NC(=O)CNC(=O)[C@H](C)N)[C@@H](C)CC)C(=O)N[C@@H](CCCCN)C(=O)N[C@@H](CCCCN)C(=O)NCC(=O)N[C@@H](CCCCN)C(=O)N[C@@H](CCCCN)C(=O)N[C@H](C(=O)N[C@H](C(=O)N[C@@H](CCCN=C(N)N)C(=O)N[C@@H](C)C(=O)N[C@@H](C)C(=O)N[C@@H](Cc1c[nH]c2ccccc12)C(=O)O)[C@@H](C)CC)C(C)C [AGSERIWKELKKYIKKGKKVIRAAW]
- MIC (Escherichia coli BL21): 2 µM (≈ 5.98 µg/mL)
- MIC [2]: 8 µM (≈ 23.9 µg/mL)
- MIC [3]: 16 µM (≈ 47.8 µg/mL)

Compound: CC[C@H](C)[C@H](NC(=O)[C@H](CCCCN)NC(=O)[C@H](CCCCN)NC(=O)[C@H](CCCCN)NC(=O)[C@H](CC(C)C)NC(=O)[C@H](Cc1ccccc1)NC(=O)[C@H](CCC(N)=O)NC(=O)[C@H](CCCN=C(N)N)NC(=O)[C@@H](NC(=O)[C@@H](NC(=O)[C@H](CCC(=O)O)NC(=O)[C@H](CCCCN)NC(=O)CNC(=O)[C@H](C)N)[C@@H](C)O)[C@@H](C)CC)C(=O)N[C@@H](CCC(N)=O)C(=O)N[C@@H](CCC(=O)O)C(=O)N[C@@H](Cc1c[nH]c2ccccc12)C(=O)N[C@@H](CCCCN)C(=O)N[C@@H](CCCCN)C(=O)N[C@@H](CCCN=C(N)N)C(=O)N[C@@H](C)C(=O)N[C@H](C(=O)N[C@H](C(=O)N[C@@H](C)C(=O)N[C@@H](Cc1c[nH]c2ccccc12)C(=O)O)[C@@H](C)CC)[C@@H](C)O [AGKETIRQFLKKKIQEWKKRATIAW]
- MIC (Escherichia coli BL21): 0.5 µM (≈ 1.53 µg/mL)
- MIC [2]: 16 µM (≈ 48.9 µg/mL)
- MIC [3]: 0.5 µM (≈ 1.53 µg/mL)

Compound: CC[C@H](C)[C@H](NC(=O)[C@H](CCCCN)NC(=O)CNC(=O)[C@H](Cc1ccccc1)NC(=O)[C@H](CCCCN)NC(=O)[C@H](CCCN=C(N)N)NC(=O)[C@H](CC(C)C)NC(=O)[C@H](Cc1ccc(O)cc1)NC(=O)[C@H](CCC(=O)O)NC(=O)[C@H](CC(C)C)NC(=O)[C@H](CC(C)C)NC(=O)[C@H](CCC(=O)O)NC(=O)[C@H](CCCCN)NC(=O)[C@@H](NC(=O)[C@H](CC(C)C)NC(=O)[C@H](CCCN=C(N)N)NC(=O)[C@H](CCC(N)=O)NC(=O)[C@H](C)NC(=O)CNC(=O)[C@H](C)N)[C@@H](C)O)C(=O)N[C@@H](C)C(=O)N[C@@H](CCCN=C(N)N)C(=O)N[C@@H](CCCCN)C(=O)N[C@@H](C)C(=O)N[C@@H](Cc1c[nH]c2ccccc12)C(=O)O [AGAQRLTKELLEYLRKFGKIARKAW]
- MIC (Escherichia coli BL21): 4 µM (≈ 11.8 µg/mL)
- MIC [2]: 64 µM (≈ 189 µg/mL)
- MIC [3]: 0.5 µM (≈ 1.47 µg/mL)

Compound: CC[C@H](C)[C@H](NC(=O)[C@H](CCCCN)NC(=O)CNC(=O)[C@H](CC(C)C)NC(=O)[C@H](Cc1ccccc1)NC(=O)[C@H](CCC(N)=O)NC(=O)[C@H](Cc1ccccc1)NC(=O)[C@@H](N)C(C)C)C(=O)N[C@H](C(=O)N[C@@H](Cc1cnc[nH]1)C(=O)N[C@@H](Cc1cnc[nH]1)C(=O)N[C@H](C(=O)NCC(=O)N[C@@H](CC(N)=O)C(=O)N[C@@H](Cc1ccccc1)C(=O)N[C@H](C(=O)N[C@@H](C)C(=O)NCC(=O)N[C@@H](Cc1ccccc1)C(=O)N[C@@H](CO)C(=O)N[C@@H](Cc1cnc[nH]1)C(=O)N[C@H](C(=O)N[C@@H](Cc1ccccc1)C(N)=O)C(C)C)C(C)C)C(C)C)[C@@H](C)CC [VFQFLGKIIHHVGNFVAGFSHVF]
- MIC (Escherichia coli MG1655): ≥ 128 µM

Compound: CC[C@H](C)[C@H](NC(=O)CN)C(=O)N[C@@H](CC(C)C)C(=O)N[C@@H](CC(=O)O)C(=O)N[C@H](C(=O)N[C@H](C(=O)N[C@@H](CCCCN)C(=O)NCC(=O)N[C@H](C(=O)N[C@@H](C)C(=O)N[C@@H](CCCCN)C(=O)N[C@@H](CC(=O)O)C(=O)N[C@H](C(=O)N[C@@H](C)C(=O)N[C@@H](C)C(=O)N[C@@H](Cc1cnc[nH]1)C(=O)N[C@@H](CC(C)C)C(=O)N[C@@H](CC(C)C)C(=O)N[C@@H](CC(N)=O)C(=O)N[C@@H](CCSC)C(=O)N[C@H](C(=O)N[C@@H](CCCCN)C(=O)N[C@H]1CSSC[C@@H](C(=O)O)NC(=O)CNC(=O)[C@H]([C@@H](C)O)NC(=O)[C@H]([C@@H](C)CC)NC(=O)[C@H](CCCCN)NC1=O)C(C)C)C(C)C)C(C)C)C(C)C)[C@@H](C)O [GILDTVKGVAKDVAAHLLNMVKCKITGC]
- MIC [9]: ≥ 160 µM
- MIC [10]: 80 µM (≈ 232 µg/mL)
- MIC [11]: ≥ 50 µM

Compound: CC[C@H](C)[C@@H]1NC(=O)[C@H](CC(C)C)NC(=O)[C@@H](NC(=O)[C@@H](NC(=O)[C@@H](NC(=O)[C@H](CCCCN)NC(=O)[C@@H]2CCCN2C(=O)[C@@H](NC(=O)[C@@H](NC(=O)[C@H](CCCN=C(N)N)NC(=O)[C@H](C)NC(=O)[C@H](C)NC(=O)[C@@H](NC(=O)CNC(=O)[C@H](C)NC(=O)[C@H](CC(C)C)NC(=O)[C@H](CCSC)NC(=O)[C@@H]2CCCN2C(=O)[C@H](Cc2ccccc2)NC(=O)[C@@H](N)Cc2ccccc2)C(C)C)C(C)C)C(C)C)C(C)C)[C@@H](C)CC)CSSC[C@@H](C(=O)O)NC(=O)[C@H](CCCCN)NC(=O)[C@H](CCCCN)NC(=O)[C@H]([C@@H](C)O)NC1=O [FFPMLAGVAARVVPKVICLITKKC]
- MIC [9]: ≥ 50 µM
- MIC [10]: 12.5 µM (≈ 32.5 µg/mL)
- MIC [11]: 6.25 µM (≈ 16.3 µg/mL)
